Laboratory results published in patent publication US20030229132A1, “Small molecule modulators of apoptosis” (priority 2002, published 2003).

Tested on: caspase-3 (DEVDase activity)
Experiment: DEVDase fluorescence screen in HeLa cell S-100 cytoplasmic extracts
Assay type: biochemical
Conditions: in vitro fluorescence assay, HeLa S-100 extracts with cyto c
Excerpt: In order to identify compounds that modulate apoptosis, a chemical genetics approach was utilized to screen for molecules that target components of the apoptosis pathway (see, T. U. Mayer et al., Science 286, 971-4 (1999)). An in vitro screen using cytoplasmic extracts was adapted for apoptosis to a 96-well format and used to test an in-house library of ˜3500 compounds (see, T. Fernandes-Alnemri et al, Proc Natl Acad Sci USA 93, 7464-9 (1996); X. Liu, C. N. Kim, J. Yang, R. Jemmerson, X. Wang, Cell 86, 147-57 (1996); L. M. Leoni et al., Proc Natl Acad Sci USA 95, 9567-71 (1998)). Briefly, individual compounds were added to HeLa cell S-100 cytoplasmic extracts at a final concentration of 1 mM and apoptosis was induced by adding bovine heart cyto c (HeLa cell cytoplasmic extracts were prepared according to previously published reports (see, P. Li et al., Cell 91, 479-89 (1997)). Compounds were distributed into 96-well microtiter plates at a final concentration of 1 mM. To each well was added 250 μg of total protein from cytoplasmic extracts in HEB buffer (50 mM Hepes pH 7.4, 50 mM KCl, 5 mM EGTA, 2 mM MgCl), with 2 mM DTT, 2 μM cyto c, and 0.5 μM DEVD-AFC substrate in a total of 150 μL. Plates were incubated at 37° C. and fluorescence was read in a LJL Biosystems plate reader at 10 min intervals). Activation of caspase-3 was monitored by cleavage of a fluorogenic substrate, Asp-Glu-Val-Asp-7-amino-4-trifluoromethylcoumarin (DEVDase activity). As designed, the DEVDase fluorescence screen encompasses the release of cyto c from the mitochondria to the activation of caspase-3. Possible targets include cyto c, Apaf-1, caspase-9, caspase-3, inhibitors of apoptosis (IAPs), and possible unidentified components present in the cytosol.

| Structure (SMILES) | activation of DEVDase activity |
| --- | --- |
| O=C1C(=O)N(Cc2ccc(Cl)c(Cl)c2)c2ccccc21 [Compound 2] | strongly activated DEVDase activity |
| O=C(NCc1ccc(Cl)c(Cl)c1)OC1CCc2ccccc21 (stereo not drawn) [Compound 4] | no activity |
| O=C(NCc1ccc(Cl)c(Cl)c1)OC1CCc2ccccc21 (stereo not drawn) [Compound 5] | strongly activated DEVDase activity |
